Data on 13 molecules can be found in ChEMBL document CHEMBL1144231, “Discovery of pyrimidine benzimidazoles as Lck inhibitors: part I” (Bioorg Med Chem Lett, 2008).

Structures are written as SMILES.

For this assay, the target named is Tyrosine-protein kinase Lck (Homo sapiens, UniProt P06239). Nature of the assay: Inhibition of Lck by lance assay.
Chain of Tyrosine-protein kinase Lck (P06239 whole entry): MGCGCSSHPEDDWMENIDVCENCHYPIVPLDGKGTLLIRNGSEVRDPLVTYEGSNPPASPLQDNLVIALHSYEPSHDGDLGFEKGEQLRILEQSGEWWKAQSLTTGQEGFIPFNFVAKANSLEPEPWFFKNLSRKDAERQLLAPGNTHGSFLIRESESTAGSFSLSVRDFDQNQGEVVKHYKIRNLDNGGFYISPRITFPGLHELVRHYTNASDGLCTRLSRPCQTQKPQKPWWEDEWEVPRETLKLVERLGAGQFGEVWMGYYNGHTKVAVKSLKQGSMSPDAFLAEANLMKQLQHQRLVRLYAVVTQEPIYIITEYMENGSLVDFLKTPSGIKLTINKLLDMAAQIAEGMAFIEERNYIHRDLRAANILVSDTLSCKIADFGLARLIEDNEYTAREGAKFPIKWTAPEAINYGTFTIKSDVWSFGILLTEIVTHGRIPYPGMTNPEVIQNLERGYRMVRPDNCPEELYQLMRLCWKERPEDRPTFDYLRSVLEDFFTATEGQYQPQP
As usually defined, the IC50 is the point on the concentration scale where inhibition reaches its midpoint. Higher therefore signals weaker potency. `Cc1cc(C)c(Nc2nc3ccccc3n2-c2cc(N)ncn2)c(C)c1` yielded an IC50 of 1.78 µM.
For `Cc1cccc(Cl)c1Nc1nc2ccccc2n1-c1cc(Nc2cc(CN3CCOCC3)ccn2)ncn1` the value was 0.014 µM; for `CCN(CC)CCCCNc1cc(-n2c(Nc3c(C)cccc3Cl)nc3ccccc32)ncn1`, 0.789 µM; for `Cc1cccc(Cl)c1Nc1nc2ccccc2n1-c1cc(Nc2ncnc(NCCN3CCOCC3)c2C)ncn1`, 0.119 µM.
For `Cc1cccc(Cl)c1Nc1nc2ccccc2n1-c1cc(N)ncn1`, half-maximal inhibition (IC50) was put at 0.514 µM.
The molecule `Cc1cccc(Cl)c1Nc1nc2ccccc2n1-c1ccncn1` had an IC50 of 2.09 µM.
For `Cc1nc(Nc2cc(-n3c(Nc4c(C)cccc4Cl)nc4ccccc43)ncn2)cc(N2CCN(CCO)CC2)n1` the value was 0.025 µM; for `Cc1cccc(Cl)c1Nc1nc2ccccc2n1-c1cc(Nc2ccc(CCN3CCOCC3)cn2)ncn1`, 0.031 µM; for `Cc1cc(C)c(Nc2nc3ccccc3n2-c2cc(N)ncn2)c(Br)c1`, 1.36 µM.
`Cc1cccc(Cl)c1Nc1nc2ccccc2n1-c1cc(N2CCOCC2)ncn1` registered an IC50 of over 2.5 µM.
Regarding `Cc1cccc(Cl)c1Nc1nc2ccccc2n1-c1cc(NN2CCOCC2)ncn1`, the IC50 was over 2.5 µM.
In turn, `Cc1nc(NCCN2CCOCC2)cc(Nc2cc(-n3c(Nc4c(C)cccc4Cl)nc4ccccc43)ncn2)n1` registered an IC50 of 0.005 µM.
Molecule `Cc1cccc(Cl)c1Nc1nc2ccccc2n1-c1cc(Cl)ncn1` gave an IC50 of over 2.5 µM.
